Assay [1] concerns the target Myosin light chain kinase 2, skeletal/cardiac muscle (Homo sapiens) (UniProt Q9H1R3). Nature of the assay: Inhibition of MYLK2 (unknown origin) assessed as residual activity at 100 nM by KINOMEscan analysis relative to control.
For assay [2], the target named is T1, Serine/threonine-protein kinase Nek1 (Homo sapiens) (UniProt Q96PY6).
T1 sequence (whole entry): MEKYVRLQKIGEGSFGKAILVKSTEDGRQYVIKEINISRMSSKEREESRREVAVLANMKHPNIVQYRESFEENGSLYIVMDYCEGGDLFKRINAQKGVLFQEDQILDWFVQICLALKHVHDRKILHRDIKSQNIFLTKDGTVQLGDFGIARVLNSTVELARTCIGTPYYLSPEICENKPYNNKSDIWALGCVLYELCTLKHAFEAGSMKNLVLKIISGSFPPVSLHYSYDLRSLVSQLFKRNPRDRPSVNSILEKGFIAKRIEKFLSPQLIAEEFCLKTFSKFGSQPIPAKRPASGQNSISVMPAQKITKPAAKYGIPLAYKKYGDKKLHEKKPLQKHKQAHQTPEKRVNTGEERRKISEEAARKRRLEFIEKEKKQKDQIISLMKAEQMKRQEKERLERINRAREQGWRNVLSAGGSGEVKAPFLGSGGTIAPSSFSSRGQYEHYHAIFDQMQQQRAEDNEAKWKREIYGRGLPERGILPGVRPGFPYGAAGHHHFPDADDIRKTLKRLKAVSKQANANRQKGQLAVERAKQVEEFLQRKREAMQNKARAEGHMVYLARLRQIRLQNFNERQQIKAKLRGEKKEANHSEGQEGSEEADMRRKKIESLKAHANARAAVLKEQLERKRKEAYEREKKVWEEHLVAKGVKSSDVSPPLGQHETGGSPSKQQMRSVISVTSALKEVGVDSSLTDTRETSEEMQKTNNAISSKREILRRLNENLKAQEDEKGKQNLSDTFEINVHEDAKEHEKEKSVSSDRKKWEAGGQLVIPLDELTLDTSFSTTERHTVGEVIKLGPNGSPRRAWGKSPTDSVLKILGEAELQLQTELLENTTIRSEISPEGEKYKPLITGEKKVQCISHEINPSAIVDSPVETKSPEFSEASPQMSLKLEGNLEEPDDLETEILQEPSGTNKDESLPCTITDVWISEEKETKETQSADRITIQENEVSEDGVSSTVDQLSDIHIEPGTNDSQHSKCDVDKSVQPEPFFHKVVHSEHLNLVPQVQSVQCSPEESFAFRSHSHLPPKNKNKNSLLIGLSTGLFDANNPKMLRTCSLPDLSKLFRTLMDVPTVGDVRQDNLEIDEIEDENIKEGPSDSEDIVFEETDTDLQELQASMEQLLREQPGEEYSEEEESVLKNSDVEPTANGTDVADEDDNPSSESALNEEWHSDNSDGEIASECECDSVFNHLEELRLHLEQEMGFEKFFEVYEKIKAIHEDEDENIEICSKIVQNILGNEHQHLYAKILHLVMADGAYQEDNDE
Nature of the assay: Inhibition of NEK1 (unknown origin) assessed as residual activity at 100 nM by KINOMEscan analysis relative to control.

For assay [3], the target named is LIM domain kinase 2 (Homo sapiens) (UniProt P53671). The assay can be described thus: Inhibition of LIMK2 (unknown origin) assessed as residual activity at 100 nM by KINOMEscan analysis relative to control.
For assay [4], the target named is Cyclin-dependent kinase 8 (Homo sapiens) (UniProt P49336). Nature of the assay: Inhibition of CDK8 (unknown origin) assessed as residual activity at 100 nM by KINOMEscan analysis relative to control.
Assay [5] deals with Glycogen synthase kinase-3 alpha (Homo sapiens) (UniProt P49840). Nature of the assay: Inhibition of GSK3A (unknown origin) assessed as residual activity at 100 nM by KINOMEscan analysis relative to control.
Assay [6] has as its target RAC-alpha serine/threonine-protein kinase (Homo sapiens) (UniProt P31749). The assay can be described thus: Inhibition of AKT1 (unknown origin) assessed as residual activity at 100 nM by KINOMEscan analysis relative to control.
Assay [7] has as its target T2, Serine/threonine-protein kinase 17B (Homo sapiens) (UniProt O94768).
T2 sequence (whole entry): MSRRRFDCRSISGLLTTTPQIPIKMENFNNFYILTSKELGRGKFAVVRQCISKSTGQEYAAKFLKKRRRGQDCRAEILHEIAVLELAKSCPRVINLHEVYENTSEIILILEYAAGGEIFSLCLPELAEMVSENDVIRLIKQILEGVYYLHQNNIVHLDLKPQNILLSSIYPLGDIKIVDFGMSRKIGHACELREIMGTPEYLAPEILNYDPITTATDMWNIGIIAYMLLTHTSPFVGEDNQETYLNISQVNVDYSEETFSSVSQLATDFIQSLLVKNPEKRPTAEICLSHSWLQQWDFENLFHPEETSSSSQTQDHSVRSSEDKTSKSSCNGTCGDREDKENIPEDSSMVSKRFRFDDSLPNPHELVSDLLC
Nature of the assay: Inhibition of DRAK2 (unknown origin) assessed as residual activity at 100 nM by KINOMEscan analysis relative to control.

The target in assay [8] is Mitogen-activated protein kinase 14 (Homo sapiens) (UniProt Q16539). The assay can be described thus: Inhibition of p38-alpha (unknown origin) assessed as residual activity at 100 nM by KINOMEscan analysis relative to control.
The target in assay [9] is Citron Rho-interacting kinase (Homo sapiens) (UniProt O14578). The assay can be described thus: Inhibition of CIT (unknown origin) assessed as residual activity at 100 nM by KINOMEscan analysis relative to control.
Assay [10] is filed under the species Homo sapiens. The assay can be described thus: Inhibition of ACVR1 (unknown origin) assessed as residual activity at 100 nM by KINOMEscan analysis relative to control.
Assay [11] concerns the target Serine/threonine-protein kinase RIO2 (Homo sapiens) (UniProt Q9BVS4). The assay can be described thus: Inhibition of RIOK2 (unknown origin) assessed as residual activity at 100 nM by KINOMEscan analysis relative to control.
Assay [12] concerns the target T3, Phosphatidylinositol 5-phosphate 4-kinase type-2 beta (Homo sapiens) (UniProt P78356).
T3 sequence (whole entry): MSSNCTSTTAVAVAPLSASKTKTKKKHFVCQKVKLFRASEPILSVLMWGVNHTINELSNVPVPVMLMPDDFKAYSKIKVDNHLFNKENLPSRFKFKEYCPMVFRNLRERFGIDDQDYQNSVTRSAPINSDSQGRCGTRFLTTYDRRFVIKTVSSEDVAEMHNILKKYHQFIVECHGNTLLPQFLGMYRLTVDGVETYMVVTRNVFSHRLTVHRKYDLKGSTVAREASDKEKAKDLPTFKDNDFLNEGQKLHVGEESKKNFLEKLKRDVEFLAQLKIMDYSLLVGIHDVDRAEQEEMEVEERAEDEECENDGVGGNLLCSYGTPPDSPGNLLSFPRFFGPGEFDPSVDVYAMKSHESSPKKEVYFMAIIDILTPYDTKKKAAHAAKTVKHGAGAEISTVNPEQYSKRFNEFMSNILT
The assay can be described thus: Inhibition of PIP5K2B (unknown origin) assessed as residual activity at 100 nM by KINOMEscan analysis relative to control.

The text below walks through data of ChEMBL document CHEMBL5678818, “Discovery of potent SOS1 inhibitors that block RAS activation via disruption of the RAS-SOS1 interaction” (Proc Natl Acad Sci U S A, 2019).

Chain of Citron Rho-interacting kinase (Homo sapiens) (O14578 whole entry): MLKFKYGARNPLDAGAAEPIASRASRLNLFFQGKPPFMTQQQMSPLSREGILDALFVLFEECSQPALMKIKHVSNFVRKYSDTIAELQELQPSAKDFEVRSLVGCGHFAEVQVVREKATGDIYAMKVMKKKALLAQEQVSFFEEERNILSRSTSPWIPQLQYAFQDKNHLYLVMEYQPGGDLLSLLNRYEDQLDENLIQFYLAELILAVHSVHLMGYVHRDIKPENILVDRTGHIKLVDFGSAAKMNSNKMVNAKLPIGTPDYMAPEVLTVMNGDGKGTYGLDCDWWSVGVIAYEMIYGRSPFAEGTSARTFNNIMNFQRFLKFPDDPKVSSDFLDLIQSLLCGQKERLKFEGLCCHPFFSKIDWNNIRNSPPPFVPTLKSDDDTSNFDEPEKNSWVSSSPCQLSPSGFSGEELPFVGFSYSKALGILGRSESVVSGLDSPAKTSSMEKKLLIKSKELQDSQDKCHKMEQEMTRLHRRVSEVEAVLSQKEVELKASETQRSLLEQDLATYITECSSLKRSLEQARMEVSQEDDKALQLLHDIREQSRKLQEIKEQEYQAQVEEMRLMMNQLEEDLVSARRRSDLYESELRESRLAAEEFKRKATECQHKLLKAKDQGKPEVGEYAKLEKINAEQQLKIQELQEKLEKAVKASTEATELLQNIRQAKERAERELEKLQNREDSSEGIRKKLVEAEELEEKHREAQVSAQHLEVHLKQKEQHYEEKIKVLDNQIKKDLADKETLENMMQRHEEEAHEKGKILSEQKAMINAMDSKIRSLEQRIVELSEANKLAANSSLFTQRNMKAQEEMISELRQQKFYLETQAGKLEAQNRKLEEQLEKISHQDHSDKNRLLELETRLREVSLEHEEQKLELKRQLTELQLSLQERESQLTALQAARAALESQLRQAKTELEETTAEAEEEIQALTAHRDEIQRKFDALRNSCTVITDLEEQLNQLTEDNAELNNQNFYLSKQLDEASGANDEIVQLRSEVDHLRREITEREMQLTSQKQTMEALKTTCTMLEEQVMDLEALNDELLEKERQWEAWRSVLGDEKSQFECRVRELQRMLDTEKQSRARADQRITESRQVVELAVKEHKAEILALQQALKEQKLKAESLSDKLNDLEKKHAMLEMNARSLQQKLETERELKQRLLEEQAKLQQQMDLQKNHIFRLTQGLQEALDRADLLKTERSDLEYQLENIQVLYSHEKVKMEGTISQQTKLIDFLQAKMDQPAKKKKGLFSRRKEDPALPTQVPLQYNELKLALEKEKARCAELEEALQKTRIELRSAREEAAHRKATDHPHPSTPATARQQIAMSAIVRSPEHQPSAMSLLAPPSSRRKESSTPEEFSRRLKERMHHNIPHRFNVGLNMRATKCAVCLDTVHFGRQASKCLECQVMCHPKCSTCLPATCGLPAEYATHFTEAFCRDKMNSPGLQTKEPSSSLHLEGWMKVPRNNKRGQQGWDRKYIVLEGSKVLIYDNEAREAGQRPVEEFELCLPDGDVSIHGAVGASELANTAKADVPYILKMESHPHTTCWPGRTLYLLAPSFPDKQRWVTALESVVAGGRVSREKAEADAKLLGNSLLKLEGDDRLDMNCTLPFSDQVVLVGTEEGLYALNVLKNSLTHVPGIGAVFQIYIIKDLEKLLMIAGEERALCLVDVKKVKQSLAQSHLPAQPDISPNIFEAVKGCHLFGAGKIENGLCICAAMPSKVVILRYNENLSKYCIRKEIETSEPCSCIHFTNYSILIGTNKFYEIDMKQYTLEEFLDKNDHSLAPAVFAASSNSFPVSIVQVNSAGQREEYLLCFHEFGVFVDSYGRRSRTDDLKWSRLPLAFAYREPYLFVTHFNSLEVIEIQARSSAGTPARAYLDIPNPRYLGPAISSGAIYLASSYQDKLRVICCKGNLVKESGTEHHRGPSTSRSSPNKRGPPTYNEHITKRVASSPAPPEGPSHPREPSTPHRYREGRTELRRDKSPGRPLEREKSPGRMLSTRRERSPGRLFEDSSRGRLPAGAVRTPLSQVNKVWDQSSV
Chain of Glycogen synthase kinase-3 alpha (Homo sapiens) (P49840 2-483 limits assumed): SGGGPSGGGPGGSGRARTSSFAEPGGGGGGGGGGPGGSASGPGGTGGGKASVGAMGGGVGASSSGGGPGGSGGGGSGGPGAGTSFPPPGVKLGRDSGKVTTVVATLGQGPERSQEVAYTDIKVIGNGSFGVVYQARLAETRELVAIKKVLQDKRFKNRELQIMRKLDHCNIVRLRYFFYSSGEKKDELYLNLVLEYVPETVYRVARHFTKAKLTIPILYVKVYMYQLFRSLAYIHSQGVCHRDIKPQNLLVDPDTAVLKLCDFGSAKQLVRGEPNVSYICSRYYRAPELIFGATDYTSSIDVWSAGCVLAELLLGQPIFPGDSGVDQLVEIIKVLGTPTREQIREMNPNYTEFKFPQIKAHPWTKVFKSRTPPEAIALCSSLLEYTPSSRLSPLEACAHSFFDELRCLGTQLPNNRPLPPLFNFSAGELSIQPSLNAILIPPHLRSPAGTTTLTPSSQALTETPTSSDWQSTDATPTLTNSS
Chain of RAC-alpha serine/threonine-protein kinase (Homo sapiens) (P31749 whole entry): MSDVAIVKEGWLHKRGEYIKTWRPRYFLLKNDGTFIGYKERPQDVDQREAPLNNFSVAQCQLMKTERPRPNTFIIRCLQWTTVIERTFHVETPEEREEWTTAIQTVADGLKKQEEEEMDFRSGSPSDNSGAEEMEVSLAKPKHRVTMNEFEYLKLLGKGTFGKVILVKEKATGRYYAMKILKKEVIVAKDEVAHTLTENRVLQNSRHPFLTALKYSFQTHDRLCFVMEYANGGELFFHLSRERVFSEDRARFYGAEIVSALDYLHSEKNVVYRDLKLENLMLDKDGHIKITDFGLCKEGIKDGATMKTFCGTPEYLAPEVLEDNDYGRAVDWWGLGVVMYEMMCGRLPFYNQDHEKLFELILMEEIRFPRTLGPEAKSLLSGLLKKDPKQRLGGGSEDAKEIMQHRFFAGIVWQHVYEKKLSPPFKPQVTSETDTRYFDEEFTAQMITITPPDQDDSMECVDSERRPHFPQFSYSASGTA
Chain of Mitogen-activated protein kinase 14 (Homo sapiens) (Q16539 whole entry): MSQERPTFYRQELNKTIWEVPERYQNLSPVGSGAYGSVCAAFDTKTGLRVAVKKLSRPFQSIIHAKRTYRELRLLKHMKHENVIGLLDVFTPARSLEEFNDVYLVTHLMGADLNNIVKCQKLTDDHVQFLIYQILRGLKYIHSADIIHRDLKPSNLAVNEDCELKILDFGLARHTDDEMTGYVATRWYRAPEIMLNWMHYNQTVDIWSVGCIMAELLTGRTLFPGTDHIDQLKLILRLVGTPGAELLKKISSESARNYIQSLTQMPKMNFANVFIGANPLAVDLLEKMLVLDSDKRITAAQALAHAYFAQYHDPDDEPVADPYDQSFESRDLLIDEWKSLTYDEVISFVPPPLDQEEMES
Chain of Cyclin-dependent kinase 8 (Homo sapiens) (P49336 whole entry): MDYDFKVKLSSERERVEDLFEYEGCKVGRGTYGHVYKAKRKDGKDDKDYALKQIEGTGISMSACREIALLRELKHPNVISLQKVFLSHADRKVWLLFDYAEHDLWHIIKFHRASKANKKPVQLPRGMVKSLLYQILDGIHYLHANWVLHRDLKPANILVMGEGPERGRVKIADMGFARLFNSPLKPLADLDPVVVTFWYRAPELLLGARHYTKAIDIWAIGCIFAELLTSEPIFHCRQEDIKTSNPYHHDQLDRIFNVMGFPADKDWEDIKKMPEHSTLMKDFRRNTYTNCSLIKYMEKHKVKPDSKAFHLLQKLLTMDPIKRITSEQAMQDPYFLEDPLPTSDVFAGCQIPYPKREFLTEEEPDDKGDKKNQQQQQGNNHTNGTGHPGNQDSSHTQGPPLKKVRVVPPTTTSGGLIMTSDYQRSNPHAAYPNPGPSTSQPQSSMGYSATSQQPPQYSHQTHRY
Chain of LIM domain kinase 2 (Homo sapiens) (P53671 whole entry, looked up, the tested form may be a part): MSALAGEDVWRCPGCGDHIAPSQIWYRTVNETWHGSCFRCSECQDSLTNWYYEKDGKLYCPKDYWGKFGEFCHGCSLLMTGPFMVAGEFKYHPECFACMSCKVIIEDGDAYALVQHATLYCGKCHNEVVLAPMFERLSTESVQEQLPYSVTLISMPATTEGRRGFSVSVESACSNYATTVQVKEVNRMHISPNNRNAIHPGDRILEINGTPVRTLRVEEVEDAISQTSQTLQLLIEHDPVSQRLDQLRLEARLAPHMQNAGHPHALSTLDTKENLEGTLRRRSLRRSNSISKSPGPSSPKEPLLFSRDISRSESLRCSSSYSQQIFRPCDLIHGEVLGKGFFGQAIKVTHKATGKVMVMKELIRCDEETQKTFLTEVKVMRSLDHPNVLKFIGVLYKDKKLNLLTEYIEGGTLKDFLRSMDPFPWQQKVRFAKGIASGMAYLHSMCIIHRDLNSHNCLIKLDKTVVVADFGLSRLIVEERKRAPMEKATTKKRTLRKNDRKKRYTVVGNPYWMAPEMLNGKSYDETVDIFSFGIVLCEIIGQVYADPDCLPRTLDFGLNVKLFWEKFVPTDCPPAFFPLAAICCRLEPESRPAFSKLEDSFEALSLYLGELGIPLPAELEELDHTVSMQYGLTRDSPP
Chain of Serine/threonine-protein kinase RIO2 (Homo sapiens) (Q9BVS4 whole entry, looked up): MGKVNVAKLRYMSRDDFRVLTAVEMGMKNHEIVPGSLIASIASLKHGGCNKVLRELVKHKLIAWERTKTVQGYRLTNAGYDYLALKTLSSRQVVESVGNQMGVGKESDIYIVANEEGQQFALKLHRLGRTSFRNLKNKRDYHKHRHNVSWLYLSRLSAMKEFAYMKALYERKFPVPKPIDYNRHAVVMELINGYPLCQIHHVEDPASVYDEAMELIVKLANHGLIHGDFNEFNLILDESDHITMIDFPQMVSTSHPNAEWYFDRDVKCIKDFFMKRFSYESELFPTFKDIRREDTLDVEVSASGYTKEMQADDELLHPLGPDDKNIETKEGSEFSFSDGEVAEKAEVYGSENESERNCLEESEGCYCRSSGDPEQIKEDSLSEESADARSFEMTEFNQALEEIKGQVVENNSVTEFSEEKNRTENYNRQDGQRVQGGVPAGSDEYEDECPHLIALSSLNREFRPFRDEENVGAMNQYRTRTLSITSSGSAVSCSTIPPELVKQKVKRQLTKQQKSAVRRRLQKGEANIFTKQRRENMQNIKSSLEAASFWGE

Consider `COc1cc2ncnc(N[C@H](C)c3cccc4ccccc34)c2cc1OC`, for which the Activity in assay [1] turned out to be 90%; in assay [2] it was 100%; in assay [3], 28%; in [4] it was 91%; in [5], 75%; in [6] it was 79%. The Activity in [7] came to 100%; in assay [8], 89%; in [9], 83%; in assay [10], 83%; in [11] it was 65%; in assay [12], 91%.
